“Also recorded” adds a separate entry of the source.
Columns and labels:
[1] = system: conjunctival cells; test: Conjunctival and corneal epithelial cell identification (CK8, CK19, CK12 immunofluorescence), stem cell deficiency model; type: in vivo, mice; conditions: Fosaprepitant 1 mg/mL (FOSA 1)
Description: Eight-week-old male mice C57BL6/N (Charles River, Calco, Italy) (WT mice, n=18) and Tac1-deficient B6.Cg-Tac1tm1Bbm/J (Jackson Laboratories, Bar Harbor, Me., USA) (TAC1-KO mice, n=18) were used in all experiments. TAC1-KO mice are homozygous null for the Tac1 gene. […] The corneal thickness and transparency as well as the corneal nerve length are similar to C57BL/6 mice [Barbariga M, Rabiolo A, Fonteyne P, Bignami F, Rama P, Ferrari G. The effect of aging on nerve morphology and substance P expression in mouse and human corneas. Investig Ophthalmol Vis Sci 2018; 59:5329-35. https://doi.org/10.1167/iovs.18-24707.]. Each animal was anesthetized with an intraperitoneal injection of tribromoethanol (250 mg/kg) and a topical anesthetic was applied to their ocular surface prior to the surgical procedure. Total disepithelization was performed based on the model previously described [Amirjamshidi H, Milani B Y, Sagha H M, Movahedan A, Shafiq M A, Lavker R M, et al. Limbal fibroblast conditioned media: A non-invasive treatment for limbal stem cell deficiency. Mol Vis 2011; 17:658], using a blunt spatula to scrap the entire corneal epithelium, including the limbus. Then, fluorescein staining was used to confirm complete removal of the corneal epithelium under the blue light of a slit-lamp microscope. After wounding, eyes were treated with ophthalmic moxifloxacin 1 time/day for 1 week to […]. Fourteen days after disepithelization mice were euthanized using carbon dioxide inhalation and subsequent cervical dislocation. Corneas were collected for immunostaining and western blot analysis. […]
The presence of conjunctival epithelial cells was evaluated by immunofluorescence. […] A negative control using only the secondary antibody was used to establish a fluorescence threshold. Then, the fluorescent intensity was quantified in terms of the percentage of positive area (% area) in the epithelium.

[2] = molecular target: T1, NK1R (Mus musculus, UniProt P30548); test: Corneal opacity grading score, stem cell deficiency model (Example 2); type: in vivo, mice
T1 construct: NK1R is expressed by both corneal epithelial and stem cell-like cells; from tissue; host or cells: cornea / ocular surface of live C57BL6/N mice (topical dosing in vivo)
Description: Eight-week-old male mice C57BL6/N (Charles River, Calco, Italy) (WT mice, n=18) and Tac1-deficient B6.Cg-Tac1tm1Bbm/J (Jackson Laboratories, Bar Harbor, Me., USA) (TAC1-KO mice, n=18) were used in all experiments. TAC1-KO mice are homozygous null for the Tac1 gene. […] The corneal thickness and transparency as well as the corneal nerve length are similar to C57BL/6 mice [Barbariga M, Rabiolo A, Fonteyne P, Bignami F, Rama P, Ferrari G. The effect of aging on nerve morphology and substance P expression in mouse and human corneas. Investig Ophthalmol Vis Sci 2018; 59:5329-35. https://doi.org/10.1167/iovs.18-24707.]. […]
Every day after disepithelization, in vivo corneal photographs were taken using a digital camera (EOS 30D; Canon, Tokyo, Japan) attached to a slit-lamp microscope (Photoslitmap 40 SL-P; Zeiss, Oberkochen, Germany) to assess corneal condition. Corneal opacity was evaluated using a grading score (from 0-4; 0=completely clear, 4=completely opaque) previously described [Yoeruek E, Deuter C, Gieselmann S, Saygili O, Spitzer M S, Tatar O, et al. Long-term visual acuity and its predictors after cataract surgery in patients with uveitis. […] The percentage of green fluorescent area on the total corneal area was evaluated by analyzing images by Image J software (National Institutes of Health, Bethesda, Md., USA).

T1 sequence (P30548 whole entry): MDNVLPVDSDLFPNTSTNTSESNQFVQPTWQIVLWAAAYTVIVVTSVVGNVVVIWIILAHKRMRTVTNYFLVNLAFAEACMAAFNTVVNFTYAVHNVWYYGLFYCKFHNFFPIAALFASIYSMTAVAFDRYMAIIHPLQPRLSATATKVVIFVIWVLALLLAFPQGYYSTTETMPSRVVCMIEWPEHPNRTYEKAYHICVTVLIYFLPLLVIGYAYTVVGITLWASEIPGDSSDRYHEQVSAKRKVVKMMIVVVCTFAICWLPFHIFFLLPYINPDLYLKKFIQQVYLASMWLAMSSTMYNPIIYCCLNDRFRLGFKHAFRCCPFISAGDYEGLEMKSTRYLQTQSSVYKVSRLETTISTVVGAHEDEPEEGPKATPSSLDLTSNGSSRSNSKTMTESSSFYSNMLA

Which “CK12 expression in the corneal epithelium compared to WT” value ([1]; p<0.001) does the source give for `C[C@@H](O[C@H]1OCCN(Cc2nc(=O)n(P(=O)(O)O)[nH]2)[C@H]1c1ccc(F)cc1)c1cc(C(F)(F)F)cc(C(F)(F)F)c1` [Fosaprepitant, [3-{[(2R,3S)-2-[(1R)-1-[3,5-bis(trifluoromethyl)phenyl]ethoxy]-3-(4-fluorophenyl)morpholin-4-yl]methyl}-5-oxo-2H-1,2,4-triazol-1-yl]phosphonic acid] here?
The value was “increase”.

What about the “CK8 conjunctival cells infiltrating the cornea compared to WT” value ([1]; p<0.01) of the same compound?
Its value is “Reduced number; also recorded: reduction”.

And the “CK19 conjunctival cells compared to WT” value ([1]; p<0.05)?
Its value is “significant decrease; also recorded: reduction”.

What about the “corneal opacity compared to WT” value ([2]; Fosaprepitant 0.1 mg/mL (FOSA 0.1) topically 4 times/day for 16 days) of the same compound?
The value was “did not show any improvement; also recorded: no improvement”.

What about the “corneal transparency compared to WT” value ([2]; Fosaprepitant 1 mg/mL (FOSA 1) topically 4 times/day for 16 days, p<0.05) of the same compound?
The value was “significant improvement; also recorded: better corneal transparency”.
